Laboratory results taken from patent publication US4430335A (priority 1983, dated 1984).

Test system: mice
Parameters: species or system mice (male, CD-1)
Conditions: mouse, in vivo

CCC(=O)O[C@](Cc1ccccc1)(c1ccccc1)[C@H](C)CN(C)C [propoxyphine]
Dose Subcutaneously (sc) [*= ED50 ], 50 % Inhibition of phenylquinone writhing: 3.4
